Experimental data taken from PMC10884005, “Euglena’s atypical respiratory chain adapts to the discoidal cristae and flexible metabolism” (Nature Communications, 2024).

Assays:
[1] = target: T1, S. scrofa CI (Sus scrofa, UniProt A0A4X1SZP7); assay: NADH oxidation at […] nm; assay type: biochemical; details: 200 μM DQ, 300 μM NADH, pH 7.4; thermal deactivation assay
T1 construct: gene NDUFV1; native purified mitochondrial complex I; with NADH dehydrogenase [ubiquinone] flavoprotein 2, mitochondrial; NADH-ubiquinone oxidoreductase 75 kDa subunit, mitochondrial

[2] = target: T2, Eg-CI (ubiquinone / rotenone site); assay: NADH-DQ oxidoreductase, NADH oxidation at […] nm; assay type: biochemical, Euglena gracilis; details: 10 nM Eg-CI, 200 μM decylubiquinone, 250 μM NADH, pH 7.4, 0.1% digitonin, room temperature
T2 construct: gene ND1; native mitochondrial complex I, LMNG-solubilised, 59 subunits (16 core), ion exchange and SEC; cells catalogue GY-D32; with NADH dehydrogenase [ubiquinone] flavoprotein 1, mitochondrial; NADH-ubiquinone oxidoreductase 75 kDa subunit, N-terminal part; NADH-ubiquinone oxidoreductase 75 kDa subunit, C-terminal part

T1 sequence (A0A4X1SZP7 21-464): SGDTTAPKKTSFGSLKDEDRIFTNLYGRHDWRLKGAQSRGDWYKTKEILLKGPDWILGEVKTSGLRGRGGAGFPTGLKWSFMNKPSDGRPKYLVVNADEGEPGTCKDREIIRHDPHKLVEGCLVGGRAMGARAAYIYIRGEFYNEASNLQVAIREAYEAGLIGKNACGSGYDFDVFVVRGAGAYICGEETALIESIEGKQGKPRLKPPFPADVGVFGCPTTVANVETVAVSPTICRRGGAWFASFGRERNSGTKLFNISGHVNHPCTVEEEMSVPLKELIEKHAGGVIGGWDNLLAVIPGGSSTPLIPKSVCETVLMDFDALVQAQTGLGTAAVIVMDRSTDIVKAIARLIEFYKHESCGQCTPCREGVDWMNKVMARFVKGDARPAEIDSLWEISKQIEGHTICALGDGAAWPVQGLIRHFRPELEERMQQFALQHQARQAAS

| SMILES | NADH oxidation at 340 nm [1] | IC50 [2] [µM] |
| --- | --- | --- |
| NC(=O)C1=CN([C@@H]2O[C@H](COP(=O)(O)OP(=O)(O)OC[C@H]3O[C@@H](n4cnc5c(N)ncnc54)[C@H](O)[C@@H]3O)[C@@H](O)[C@H]2O)C=CC1 [NADH] | Thermal deactivation assays of S. scrofa CI (a) | – |
| C=C(C)[C@H]1Cc2c(ccc3c2O[C@@H]2COc4cc(OC)c(OC)cc4[C@@H]2C3=O)O1 [rotenone] | – | ~11 |
